Measured values published in paper PMC7188728, “A phase I study investigation of metabolism, and disposition of [^14C]-anlotinib after an oral administration in patients with advanced refractory solid tumors” (Cancer Chemotherapy and Pharmacology, 2020).
Structures can show the parent of a compound that is named as a salt.

Experiments:
[1] = Adverse events after a single dose of 14C anlotinib suspension; type: in vivo, human
[2] = system: human cytochrome P450 3A4; design: method as in PMID 29441353; settings: in vitro; read-out: Half maximum inhibitory concentration; cited from earlier work
[3] = design: method as in PMID 29620050; settings: rats and dogs; cited from earlier work

COc1cc2c(Oc3ccc4[nH]c(C)cc4c3F)ccnc2cc1OCC1(N)CC1 [anlotinib, 1-[[4-(4-fluoro-2-methyl-1H-indol-5-yloxy)-6-methoxyquinolin-7-yl]oxy]methyl) cyclopropanamine dihydrochloride]
one: Patients in whom severe adverse events (SAE) occurred ([1]; six patients, follow-up period)
five: Patients in whom adverse events occurred ([1]; six patients, after a single dosage)
absorbed quickly: Absorption [3]
110 nM: IC50 [2]
0 n (%): Stomachache: number of cases of grade 3 (%) ([1]; D1 ~ D18, N = 6) | Alkaline phosphatase increased: number of cases of grade 3 (%) ([1]; Research process, N = 6) | Anemia: number of cases of grade 3 (%) ([1]; Research process, N = 6) | Aspartate aminotransferase increased: number of cases of grade 1/2 (%) ([1]; Research process, N = 6) | Constipation: number of cases of grade 3 (%) ([1]; Research process, N = 6) | Cough: number of cases of grade 3 (%) ([1]; Research process, N = 6) | Diarrhea: number of cases of grade 3 (%) ([1]; Research process, N = 6) | Hemoptysis: number of cases of grade 3 (%) ([1]; Research process, N = 6) | Hypertriglyceridemia: number of cases of grade 3 (%) ([1]; Research process, N = 6) | Hypoalbuminemia: number of cases of grade 3 (%) ([1]; Research process, N = 6) | Hypocalcemia: number of cases of grade 3 (%) ([1]; Research process, N = 6) | Hypothyroidism: number of cases of grade 3 (%) ([1]; Research process, N = 6) | Increased lactate dehydrogenase: number of cases of grade 3 (%) ([1]; Research process, N = 6) | Insomnia: number of cases of grade 3 (%) ([1]; Research process, N = 6) | Liver function damage: number of cases of grade 1/2 (%) ([1]; Research process, N = 6) | Proteinuria: number of cases of grade 3 (%) ([1]; Research process, N = 6) | Rapid atrial fibrillation: number of cases of grade 3 (%) ([1]; Research process, N = 6) | Sinus bradycardia: number of cases of grade 3 (%) ([1]; Research process, N = 6) | Sinus tachycardia: number of cases of grade 3 (%) ([1]; Research process, N = 6) | Stomachache: number of cases of grade 3 (%) ([1]; Research process, N = 6)
2 (33.33%) n (%): Constipation: number of cases of grade 1/2 (%) ([1]; Research process, N = 6) | Diarrhea: number of cases of grade 1/2 (%) ([1]; Research process, N = 6) | Increased lipase: number of cases of grade 1/2 (%) ([1]; Research process, N = 6) | Increased lipase: number of cases of grade 3 (%) ([1]; Research process, N = 6) | Insomnia: number of cases of grade 1/2 (%) ([1]; Research process, N = 6)
good membrane permeability: Membrane permeability [3]
3 (50%) n (%): At least once (any adverse event): number of cases of grade 3 (%) ([1]; Research process, N = 6) | Hypoalbuminemia: number of cases of grade 1/2 (%) ([1]; Research process, N = 6)
1 (16.67%) n (%): Alkaline phosphatase increased: number of cases of grade 1/2 (%) ([1]; Research process, N = 6) | Anemia: number of cases of grade 1/2 (%) ([1]; Research process, N = 6) | Aspartate aminotransferase increased: number of cases of grade 3 (%) ([1]; Research process, N = 6) | Cough: number of cases of grade 1/2 (%) ([1]; Research process, N = 6) | Hemoptysis: number of cases of grade 1/2 (%) ([1]; Research process, N = 6) | Hypertriglyceridemia: number of cases of grade 1/2 (%) ([1]; Research process, N = 6) | Hypocalcemia: number of cases of grade 1/2 (%) ([1]; Research process, N = 6) | Hypophosphatemia: number of cases of grade 1/2 (%) ([1]; Research process, N = 6) | Hypophosphatemia: number of cases of grade 3 (%) ([1]; Research process, N = 6) | Hypothyroidism: number of cases of grade 1/2 (%) ([1]; Research process, N = 6) | Increased alanine aminotransferase: number of cases of grade 1/2 (%) ([1]; Research process, N = 6) | Increased alanine aminotransferase: number of cases of grade 3 (%) ([1]; Research process, N = 6) | Increased blood bilirubin: number of cases of grade 1/2 (%) ([1]; Research process, N = 6) | Increased blood bilirubin: number of cases of grade 3 (%) ([1]; Research process, N = 6) | Increased lactate dehydrogenase: number of cases of grade 1/2 (%) ([1]; Research process, N = 6) | Increased γ-glutamyl transpeptidase: number of cases of grade 1/2 (%) ([1]; Research process, N = 6) | Increased γ-glutamyl transpeptidase: number of cases of grade 3 (%) ([1]; Research process, N = 6) | Liver function damage: number of cases of grade 3 (%) ([1]; Research process, N = 6) | Proteinuria: number of cases of grade 1/2 (%) ([1]; Research process, N = 6) | Rapid atrial fibrillation: number of cases of grade 1/2 (%) ([1]; Research process, N = 6) | Sinus bradycardia: number of cases of grade 1/2 (%) ([1]; Research process, N = 6) | Sinus tachycardia: number of cases of grade 1/2 (%) ([1]; Research process, N = 6) | Stomachache: number of cases of grade 1/2 (%) ([1]; Research process, N = 6)
